Measurements published in patent US7745191B2, “Method of producing heterodimer derivative of protein phosphatase type 2A enzyme” (Tropical Technology Center Ltd., priority 2005, dated 2010).

Test: Phosphatase activity of the purified protein using p-nitrophenylphosphate as substrate
Format: biochemical
Conditions: infected High Five cells incubated at 19° C. for 4 days versus 27° C. for 3 days (comparative example); FIG. 4
Procedure: By SDS-PAGE (0.2 μg of protein; 10% SDS-gel), the purified recombinant protein in the recovered eluate was confirmed. The activity of the purified protein was determined according to a method using p-nitrophenylphosphate as substrate (Takai et al. 1995, Biochem J. 306:657-665).
In both figures, the term “27° C.” indicates the tagged catalytic unit of PP2A (comparative example), which was prepared in the same manner as in Example 3 except that the cells infected with the recombinant baculovirus was incubated at 27° C. for 3 days. In FIG. 3, the both end side lanes indicate a marker, the 2nd lane from left indicates the tagged catalytic unit of PP2A prepared by incubation at 27° C., and the 3rd lane from left indicates the tagged catalytic unit of PP2A prepared by incubation at 19° C.

Substance: tagged catalytic unit of PP2A: Recombinant human PP2A catalytic subunit carrying a polyhistidine tag (His-PP2Acα, His-PP2Acβ), expressed in baculovirus-infected High Five cells
- enhancement of activity to p-nitrophenylphosphate: ≥ 6 times
